Values after ≈ are worked out from the molar mass of the structure shown. Active and inactive are the calls of the source. No cut-off for these calls is given here.
Tests used:
Bacillus cereus = assay: Antibacterial activity against Bacillus cereus after 12 to 14 hrs; assay type: functional
Bacillus subtilis = assay: Antibacterial activity against Bacillus subtilis after 12 to 14 hrs; assay type: functional
Ralstonia solanacearum [1] = assay: Antibacterial activity against Ralstonia solanacearum after 12 to 14 hrs; assay type: functional
Staphylococcus aureus [2] = assay: Antibacterial activity against Staphylococcus aureus after 12 to 14 hrs; assay type: functional
Staphylococcus aureus [3] = assay: Antibacterial activity against methicillin-resistant Staphylococcus aureus after 12 to 14 hrs; assay type: functional
Staphylococcus aureus [4] = assay: Induction of morphological changes in Staphylococcus aureus assessed as cell shrinkage at 1 ug/ml after 1 hr by SEM analysis; assay type: functional, organism-based
A549 = assay: Cytotoxicity against human A549 cells assessed as decrease in cell viability after 48 hrs by MTT assay; assay type: cell-based; details: A549, 48 h
Staphylococcus aureus [5] = assay: Induction of membrane damage in Staphylococcus aureus at 1 ug/ml after 1 hr by Hoechst/propidium iodide staining-based fluorescence microscopic method; assay type: functional, organism-based
SGC-7901 = assay: Cytotoxicity against human SGC7901 cells assessed as decrease in cell viability after 48 hrs by MTT assay; assay type: cell-based; details: SGC-7901, 48 h
[6] = Selectivity index, ratio of IC50 for human SGC7901 cells to MIC for Bacillus cereus; assay type: toxicity; details: read-out: Selectivity Index
Staphylococcus aureus [7] = assay: Potency index, ratio of fosfomycin sodium MIC to test compound MIC for methicillin-resistant Staphylococcus aureus; assay type: functional
[8] = Cytotoxicity against human A549 cells assessed as cell viability at 4 ug/ml after 48 hrs by MTT assay relative to control; assay type: cell-based; details: read-out: Activity
[9] = Cytotoxicity against human L02 cells assessed as cell viability at 4 ug/ml after 48 hrs by MTT assay relative to control; assay type: cell-based; details: read-out: Activity
Ralstonia solanacearum [10] = assay: Protection against Ralstonia solanacearum-induced infection in eggplant leaf at 4 ug/ml after 3 days relative to control; assay type: functional
L02 = assay: Cytotoxicity against human L02 cells assessed as decrease in cell viability after 48 hrs by MTT assay; assay type: cell-based; details: L02, 48 h
Staphylococcus aureus [11] = assay: Induction of membrane permeabilization in Staphylococcus aureus at MIC by beta-galactosidase leakage assay; assay type: functional, organism-based
Staphylococcus aureus [12] = assay: Potency index, ratio of cefotaxime sodium MIC to test compound MIC for methicillin-resistant Staphylococcus aureus; assay type: functional
[13] = Selectivity index, ratio of IC50 for human L02 cells to MIC for Ralstonia solanacearum; assay type: toxicity; details: read-out: Selectivity Index
[14] = Cytotoxicity against human HeLa cells assessed as cell viability at 4 ug/ml after 48 hrs by MTT assay relative to control; assay type: cell-based; details: read-out: Activity
[15] = Selectivity index, ratio of IC50 for human A549 cells to MIC for Ralstonia solanacearum; assay type: toxicity; details: read-out: Selectivity Index
Triticum aestivum = assay: Allelopathic activity against Triticum aestivum assessed as germination rate at 4 ug/ml after 48 hrs (reference value: 91 +/- 0.42%); assay type: organism-based; details: in vivo
[16] = Selectivity index, ratio of IC50 for human HeLa cells to MIC for Bacillus cereus; assay type: toxicity; details: read-out: Selectivity Index
[17] = Selectivity index, ratio of IC50 for human L02 cells to MIC for Bacillus cereus; assay type: toxicity; details: read-out: Selectivity Index
[18] = Selectivity index, ratio of IC50 for human HeLa cells to MIC for Ralstonia solanacearum; assay type: toxicity; details: read-out: Selectivity Index
[19] = Selectivity index, ratio of IC50 for human SGC7901 cells to MIC for Ralstonia solanacearum; assay type: toxicity; details: read-out: Selectivity Index
[20] = Selectivity index, ratio of IC50 for human A549 cells to MIC for Bacillus cereus; assay type: toxicity; details: read-out: Selectivity Index
[21] = Cytotoxicity against human SGC7901 cells assessed as cell viability at 4 ug/ml after 48 hrs by MTT assay relative to control; assay type: cell-based, SGC-7901; details: read-out: Activity
HeLa = assay: Cytotoxicity against human HeLa cells assessed as decrease in cell viability after 48 hrs by MTT assay; assay type: cell-based
Radish = assay: Allelopathic activity against Raphanus sativus assessed as germination rate at 4 ug/ml after 48 hrs (reference value: 92 +/- 0.47%); assay type: organism-based; details: in vivo
Ralstonia solanacearum [22] = assay: Potency index, ratio of propineb MIC to test compound MIC for Ralstonia solanacearum; assay type: functional

Work on O=c1ccc2nccc3c4cc(O)ccc4n1c23 yielded an MIC (Bacillus cereus) of 16 µg/mL (≈ 67.7 µM), an MIC (Bacillus subtilis) greater than 64 µg/mL and an MIC (Ralstonia solanacearum [1]) greater than 64 µg/mL. For the same molecule, the MIC (Staphylococcus aureus [2]) was greater than 64 µg/mL.

O=C1CCC2(SCCS2)c2cc3ccccc3n21 showed an MIC (Bacillus cereus) greater than 64 µg/mL, an MIC (Bacillus subtilis) greater than 64 µg/mL and an MIC (Ralstonia solanacearum [1]) greater than 64 µg/mL. For the same molecule, the MIC (Staphylococcus aureus [3]) was greater than 64 µg/mL and the MIC (Staphylococcus aureus [2]) was 32 µg/mL (≈ 116 µM).

Work on O=C1CCC(O)c2cc3ccccc3n21 (centres undefined) yielded an MIC (Bacillus cereus) of 16 µg/mL (≈ 79.5 µM), an MIC (Bacillus subtilis) of 16 µg/mL (≈ 79.5 µM) and an MIC (Ralstonia solanacearum [1]) of 32 µg/mL (≈ 159 µM). For the same molecule, the MIC (Staphylococcus aureus [3]) was 32 µg/mL (≈ 159 µM) and the MIC (Staphylococcus aureus [2]) was 8 µg/mL (≈ 39.8 µM).

For O=C1CCC(=O)n2c1cc1ccccc12, the MIC (Bacillus cereus) was 16 µg/mL (≈ 80.3 µM), the MIC (Bacillus subtilis) was 4 µg/mL (≈ 20.1 µM) and the MIC (Ralstonia solanacearum [1]) was 8 µg/mL (≈ 40.2 µM). The MIC (Staphylococcus aureus [3]) was 4 µg/mL (≈ 20.1 µM) and the MIC (Staphylococcus aureus [2]) was 8 µg/mL (≈ 40.2 µM).

For O=C1C=CC(=O)n2c1cc1ccccc12, the MIC (Bacillus cereus) was 4 µg/mL (≈ 20.3 µM), the Activity (Staphylococcus aureus [4]) was “Active” and the IC50 (A549) was 97.1 µM. For the same molecule, the Activity (Staphylococcus aureus [5]) was “Active”, the IC50 (SGC-7901) was 88.6 µM and the selectivity ratio [6] was 4.9. It also gave a Ratio (Staphylococcus aureus [7]) of 4, an MIC (Bacillus subtilis) of 2 µg/mL (≈ 10.1 µM) and an MIC (Ralstonia solanacearum [1]) of 4 µg/mL (≈ 20.3 µM). The viability at 48 h, 4 ug/ml [8] was 103%, the viability at 48 h, 4 ug/ml [9] was 89% and the Efficacy (Ralstonia solanacearum [10]) was 68%. The IC50 (L02) was 79.5 µM, the Activity (Staphylococcus aureus [11]) was “Active” and the Ratio (Staphylococcus aureus [12]) was 8. For the same molecule, the selectivity ratio [13] was 4, the viability at 48 h, 4 ug/ml [14] was 91% and the selectivity ratio [15] was 4.4. For the same molecule, the Activity (Triticum aestivum) was 97%, the selectivity ratio [16] was 4.1 and the selectivity ratio [17] was 4.9. It also gave a selectivity ratio [18] of 4.4, a selectivity ratio [19] of 4 and a selectivity ratio [20] of 4.1. It also gave a viability at 48 h, 4 ug/ml [21] of 96%, an MIC (Staphylococcus aureus [3]) of 2 µg/mL (≈ 10.1 µM) and an IC50 (HeLa) of 82.4 µM. For the same molecule, the MIC (Staphylococcus aureus [2]) was 2 µg/mL (≈ 10.1 µM) and the Activity (Radish) was 100%.

COc1ccc2c(c1)c1c3n2C(=O)CCC3N(Cc2ccccc2)CC1 (centres undefined) gave an MIC (Bacillus cereus) greater than 64 µg/mL, an MIC (Bacillus subtilis) greater than 64 µg/mL and an MIC (Ralstonia solanacearum [1]) greater than 64 µg/mL. The MIC (Staphylococcus aureus [3]) was 64 µg/mL (≈ 185 µM) and the MIC (Staphylococcus aureus [2]) was 64 µg/mL (≈ 185 µM).

c1ccc2c(c1)[nH]c1cnccc12 [NORHARMANE] showed an MIC (Bacillus cereus) greater than 64 µg/mL, an MIC (Bacillus subtilis) greater than 64 µg/mL and an MIC (Ralstonia solanacearum [1]) greater than 64 µg/mL. It also gave an MIC (Staphylococcus aureus [3]) greater than 64 µg/mL and an MIC (Staphylococcus aureus [2]) greater than 64 µg/mL.

Work on COc1ccc2[nH]c3c(C(OC)OC)nccc3c2c1 yielded an MIC (Bacillus cereus) greater than 64 µg/mL, an MIC (Bacillus subtilis) greater than 64 µg/mL and an MIC (Ralstonia solanacearum [1]) greater than 64 µg/mL. The MIC (Staphylococcus aureus [2]) was greater than 64 µg/mL.

Molecule COc1ccc2c(c1)c1ccnc3c1n2CN(Cc1ccccc1)C3 has an MIC (Bacillus cereus) of 64 µg/mL (≈ 194 µM), an MIC (Bacillus subtilis) of 64 µg/mL (≈ 194 µM) and an MIC (Ralstonia solanacearum [1]) greater than 64 µg/mL. The MIC (Staphylococcus aureus [2]) was greater than 64 µg/mL.

COc1ccc2c(c1)c1c3n2C(=O)CCC3NCC1 (centres undefined) gave an MIC (Bacillus cereus) greater than 64 µg/mL, an MIC (Bacillus subtilis) greater than 64 µg/mL and an MIC (Ralstonia solanacearum [1]) greater than 64 µg/mL. The MIC (Staphylococcus aureus [2]) was greater than 64 µg/mL.

For COc1ccc2c(c1)c1ccnc3ccc(=O)n2c31, the MIC (Bacillus cereus) was 4 µg/mL (≈ 16 µM), the MIC (Bacillus subtilis) was 8 µg/mL (≈ 32 µM) and the MIC (Ralstonia solanacearum [1]) was 16 µg/mL (≈ 63.9 µM). The MIC (Staphylococcus aureus [3]) was 64 µg/mL (≈ 256 µM) and the MIC (Staphylococcus aureus [2]) was greater than 64 µg/mL.

In the case of O=C1CCC(=O)n2ccc3cccc1c32, the MIC (Bacillus cereus) is reported as greater than 64 µg/mL, the MIC (Bacillus subtilis) is reported as greater than 64 µg/mL and the MIC (Ralstonia solanacearum [1]) is reported as greater than 64 µg/mL. The MIC (Staphylococcus aureus [2]) was greater than 64 µg/mL.

Molecule O=C1CCCc2cc3ccccc3n21 has an MIC (Bacillus cereus) greater than 64 µg/mL, an MIC (Bacillus subtilis) greater than 64 µg/mL and an MIC (Ralstonia solanacearum [1]) greater than 64 µg/mL. It also gave an MIC (Staphylococcus aureus [2]) greater than 64 µg/mL.

With C#CCOc1ccc2c(c1)c1ccnc3ccc(=O)n2c31 the MIC (Bacillus cereus) was 8 µg/mL (≈ 29.2 µM), the MIC (Bacillus subtilis) was greater than 64 µg/mL and the MIC (Ralstonia solanacearum [1]) was 8 µg/mL (≈ 29.2 µM). It also gave an MIC (Staphylococcus aureus [3]) greater than 64 µg/mL and an MIC (Staphylococcus aureus [2]) of 64 µg/mL (≈ 233 µM).

In the case of CO/N=C(\C(=O)N[C@@H]1C(=O)N2C(C(=O)[O-])=C(COC(C)=O)CS[C@H]12)c1csc(N)n1.[Na+] [CEFOTAXIME SODIUM], the MIC (Bacillus cereus) is reported as 16 µg/mL, the MIC (Bacillus subtilis) is reported as 2 µg/mL and the MIC (Ralstonia solanacearum [1]) is reported as 2 µg/mL. For the same molecule, the MIC (Staphylococcus aureus [3]) was 16 µg/mL and the MIC (Staphylococcus aureus [2]) was 1 µg/mL.

COc1ccc2[nH]c3cnccc3c2c1 showed an MIC (Bacillus cereus) greater than 64 µg/mL, an MIC (Bacillus subtilis) greater than 64 µg/mL and an MIC (Ralstonia solanacearum [1]) greater than 64 µg/mL. For the same molecule, the MIC (Staphylococcus aureus [3]) was greater than 64 µg/mL and the MIC (Staphylococcus aureus [2]) was greater than 64 µg/mL.

COc1ccc2[nH]c3c(C=O)nccc3c2c1 showed an MIC (Bacillus cereus) of 32 µg/mL (≈ 141 µM), an MIC (Bacillus subtilis) greater than 64 µg/mL and an MIC (Ralstonia solanacearum [1]) greater than 64 µg/mL. It also gave an MIC (Staphylococcus aureus [2]) greater than 64 µg/mL.

CCc1cc2nccc3c4cc(OC)ccc4n(c1=O)c23 showed an MIC (Bacillus cereus) greater than 64 µg/mL, an MIC (Bacillus subtilis) greater than 64 µg/mL and an MIC (Ralstonia solanacearum [1]) greater than 64 µg/mL. For the same molecule, the MIC (Staphylococcus aureus [2]) was greater than 64 µg/mL.

Molecule O=c1ccc2nccc3c4cc(OCc5cn(Cc6ccccc6)nn5)ccc4n1c23 has an MIC (Bacillus cereus) greater than 64 µg/mL and an MIC (Bacillus subtilis) greater than 64 µg/mL.

Work on O=C(O)CNCP(=O)(O)O [GLYPHOSATE] yielded an Activity (Triticum aestivum) of 75% and an Activity (Radish) of 78%.

C[C@@H]1O[C@@H]1P(=O)([O-])[O-].[Na+].[Na+] [PHOSPHOMYCIN DISODIUM] gave an MIC (Bacillus cereus) of 4 µg/mL, an MIC (Bacillus subtilis) of 2 µg/mL and an MIC (Ralstonia solanacearum [1]) of 8 µg/mL. For the same molecule, the MIC (Staphylococcus aureus [3]) was 8 µg/mL and the MIC (Staphylococcus aureus [2]) was 16 µg/mL.

COc1ccc2c(c1)c1cc[n+]([O-])c3ccc(=O)n2c13 gave an MIC (Bacillus cereus) greater than 64 µg/mL, an MIC (Bacillus subtilis) greater than 64 µg/mL and an MIC (Ralstonia solanacearum [1]) greater than 64 µg/mL. It also gave an MIC (Staphylococcus aureus [2]) greater than 64 µg/mL.

COc1ccc2c(c1)c1ccnc3c1n2CCC3 showed an MIC (Bacillus cereus) of 32 µg/mL (≈ 134 µM), an MIC (Bacillus subtilis) greater than 64 µg/mL and an MIC (Ralstonia solanacearum [1]) of 4 µg/mL (≈ 16.8 µM). It also gave a Ratio (Ralstonia solanacearum [22]) of 2, an MIC (Staphylococcus aureus [3]) of 32 µg/mL (≈ 134 µM) and an MIC (Staphylococcus aureus [2]) greater than 64 µg/mL.

O=C1CCCC2Cc3ccccc3N12 (centres undefined) showed an MIC (Bacillus cereus) greater than 64 µg/mL, an MIC (Bacillus subtilis) greater than 64 µg/mL and an MIC (Ralstonia solanacearum [1]) greater than 64 µg/mL. It also gave an MIC (Staphylococcus aureus [2]) greater than 64 µg/mL.
